{"source": "patent US8518952B2", "about": "“6 substituted 2-heterocyclylamino pyrazine compounds as CHK-1 inhibitors” (Pfizer Inc., priority 2008, dated 2013)", "key": {"CHK1 (kinase domain)": {"biological_target": "T1, CHK1 (kinase domain) (Homo sapiens, UniProt O14757)", "T1 construct": "a solution containing 1 nM of CHK1 (kinase domain)", "T1 sequence (O14757 9-265 limits assumed)": "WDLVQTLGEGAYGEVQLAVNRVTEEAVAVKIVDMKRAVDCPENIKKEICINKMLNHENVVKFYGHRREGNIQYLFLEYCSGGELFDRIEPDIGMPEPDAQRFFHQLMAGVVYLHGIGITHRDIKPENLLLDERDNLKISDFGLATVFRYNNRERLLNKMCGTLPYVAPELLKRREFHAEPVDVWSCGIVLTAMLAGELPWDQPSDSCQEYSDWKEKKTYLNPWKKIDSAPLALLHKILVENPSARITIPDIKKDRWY", "assay": "CHK1 Ki determination, spectrophotometric coupled (pyruvate kinase/lactate dehydrogenase) assay", "format": "biochemical", "conditions": "CHK-1 kinase domain; 150 uM ATP, 125 uM Syntide 2", "procedure": "After 15 min pre-incubation, the enzymatic reaction was initiated by the simultaneous addition of Syntide 2 peptide (125 uM, final concentration) and ATP (150 uM, final concentration). The kinase-catalyzed production of ADP from ATP that accompanied phosphoryl transfer to the substrate Syntide 2 was coupled to the oxidation of NADH through the activities of pyruvate kinase and lactate dehydrogenase. NADH conversion to NAD^+ was monitored by the decrease in absorbance at 340 nm (ε=6.22 cm^−1 mM^−1) using a microplate reader from Molecular Devices Spectormax Plus (Sunnyvale, Calif.) or BMG LABTECH Inc (Offenburg, Germany).\nThe inhibition of CHK1 was analyzed by fitting the data to the following equation to determine Kiapp:\n[formula] where [E]o and [I]o are the active enzyme and inhibitor concentration, respectively; Ki is the inhibition binding constant and Km the Michaelis-Menten constant for ATP; Vi and Vo are the rates of substrate oxidation in the presence of and in the absence of inhibitor, respectively. EC50 Determination (Cellular Assay)\n(§1) Under the “Ki” column, data entries in the format of “%” are percent inhibition data where no Ki data is available. Data entry under the “EC50” column with an * are data obtained using Mia Paca-2 cells rather than HeLa cells. Data is not available where noted as n/a."}, "HeLa cells": {"system": "HeLa cells", "assay": "Histone H3 (Ser10) phosphorylation ELISA, abrogation of camptothecin-induced G2 arrest (CHK-1 cellular assay)", "format": "cell-based", "procedure": "The Histone H3 phosphorylation ELISA assay detects cells entering mitosis and represents the primary in vitro cell-based assay used to measure the cellular potency of compounds in abrogating the G2 check point induced by DNA damage in HeLa cells or MiaPaCa cells. The candidate substances were assayed for potency in their ability to inhibit camptothecin-induced G2 arrest, as measured by an increase in Histone H3 phosphorylation on Ser10, a marker of entry into mitosis.\nTissue culture plates were seeded with HeLa cells or MiaPaCa Cells and allowed to attach overnight. The cells were then treated with camptothecin to induce DNA damage for 8 hrs. Candidate substances or diluent were then added in the presence of nocodozole for 16 hours. […] The fresh whole cell lysates were then thawed and added to the ELISA plate with shaking for 3 hours. Between all subsequent steps plates were washed 4 times with PBST. Biotinylated phospho Histone H3 (ser10) detection antibody was added for 1 hour, followed by addition of horseradish peroxidase-linked streptavidin secondary antibody for 1 hour. Color development of the antibody was performed with addition of TMB substrate and incubation for 2 minutes on a plate shaker. […] EC50 values were calculated by sigmoid curve fitting using a four-parameter analysis.\nas §1"}, "[1]": {"conditions": "Homo sapiens, HeLa, HeLa cells, camptothecin 8 hrs, then compound with nocodozole 16 hours, read-out: EC50"}, "[2]": {"conditions": "HeLa cells, camptothecin 8 hrs, then compound with nocodozole 16 hours, read-out: EC50"}}, "note": "Like-named read-outs stand apart in the source and are kept apart here."}
{"molecule": "C[C@@H]1NCCC[C@H]1Nc1cncc(-c2cnc3ccc(F)cn23)n1", "note": "[Example 168, 6-(6-fluoroimidazo[1,2-a]pyridin-3-yl)-N-[(2S,3R)-2-methylpiperidin-3-yl]pyrazin-2-amine]", "values": [{"measurement": "Ki", "setting": "CHK1 (kinase domain)", "result": 22.7, "unit": "nM"}, {"measurement": "EC50", "setting": "HeLa cells; [1]", "result": "≥ 10000", "unit": "nM"}]}
{"molecule": "Cc1cn2c(-c3cncc(N[C@@H]4C[C@@H]5CN[C@H]4C5)n3)cnc2s1", "note": "[Example 85, (1S,4R,6R)-2-Aza-bicyclo[2.2.1]hept-6-yl-[6-(2-methyl-imidazo[2,1-b]thiazol-5-yl)-pyrazin-2-yl]-amine]", "values": [{"measurement": "EC50", "setting": "HeLa cells; [2]", "result": 795, "unit": "nM"}]}
{"molecule": "C[C@@H]1CC[C@@H](Nc2cncc(-c3cnc4ccccn34)n2)CN1", "note": "[Example 31, 6-imidazo[1,2-a]pyridin-3-yl-N-[(3R,6R)-6-methylpiperidin-3-yl]pyrazin-2-amine]", "values": [{"measurement": "Ki", "setting": "CHK1 (kinase domain)", "result": 27.3, "unit": "nM"}, {"measurement": "EC50", "setting": "HeLa cells; [1]", "result": 183, "unit": "nM"}]}
{"molecule": "CCc1cn2c(-c3cncc(N[C@@H]4CCCN[C@@H]4C)n3)cnc2s1", "note": "[Example 166, 6-(2-ethylimidazo[2,1-b][1,3]thiazol-5-yl)-N-[(2R,3R)-2-methylpiperidin-3-yl]pyrazin-2-amine]", "values": [{"measurement": "Ki", "setting": "CHK1 (kinase domain)", "result": 4.79, "unit": "nM"}, {"measurement": "EC50", "setting": "HeLa cells; [2]", "result": 123, "unit": "nM"}]}
{"molecule": "CC(C)c1cn2c(-c3cncc(N[C@@H]4CC[C@H](C)NC4)n3)cnc2s1", "note": "[Example 114, 6-(2-isopropylimidazo[2,1-b][1,3]thiazol-5-yl)-N-[(3R,6S)-6-methylpiperidin-3-yl]pyrazin-2-amine]", "values": [{"measurement": "Ki", "setting": "CHK1 (kinase domain)", "result": 12.3, "unit": "nM"}, {"measurement": "EC50", "setting": "HeLa cells; [1]", "result": 230, "unit": "nM"}]}
{"molecule": "C[C@H]1NCCC[C@H]1Nc1cncc(-c2cnc3ccccn23)n1", "note": "[Example 138, 6-imidazo[1,2-a]pyridin-3-yl-N-[(2R,3R)-2-methylpiperidin-3-yl]pyrazin-2-amine]", "values": [{"measurement": "EC50", "setting": "HeLa cells; [2]", "result": 188, "unit": "nM"}]}
{"molecule": "C[C@@H]1CC[C@@H](Nc2cncc(-c3cnc4ccc(F)cn34)n2)CN1", "note": "[Example 88, 6-(6-fluoroimidazo[1,2-a]pyridin-3-yl)-N-[(3R,6R)-6-methylpiperidin-3-yl]pyrazin-2-amine]", "values": [{"measurement": "Ki", "setting": "CHK1 (kinase domain)", "result": 90.7, "unit": "nM"}, {"measurement": "EC50", "setting": "HeLa cells; [1]", "result": "≥ 10000", "unit": "nM"}]}
{"molecule": "Cc1cn2c(-c3cncc(N[C@@H]4CC[C@H](C)NC4)n3)cnc2s1", "note": "(relative stereo) [Example 62, Cis 6-(2-Methylimidazo[2,1-b][1,3]thiazol-5-yl)-N-(6-methylpiperidin-3-yl)pyrazin-2-amine]", "values": [{"measurement": "Ki", "setting": "CHK1 (kinase domain)", "result": 73.5, "unit": "nM"}, {"measurement": "EC50", "setting": "HeLa cells; [1]", "result": 694, "unit": "nM"}]}
{"molecule": "Clc1ccn2c(-c3cncc(N[C@@H]4CCCNC4)n3)cnc2c1", "note": "[Example 44, 6-(7-Chloroimidazo[1,2-a]pyridin-3-yl)-N-[(3R)-piperidin-3-yl]pyrazin-2-amine]", "values": [{"measurement": "Ki", "setting": "CHK1 (kinase domain)", "result": 2.51, "unit": "nM"}, {"measurement": "EC50", "setting": "HeLa cells; [1]", "result": 21, "unit": "nM"}]}
{"molecule": "FC(F)[C@@H]1C[C@@H](Nc2cncc(-c3cnc4cc(C(F)(F)F)ccn34)n2)CN1", "note": "[Example 89, N-[(3R,5S)-5-(difluoromethyl)pyrrolidin-3-yl]-6-[7-(trifluoromethyl)imidazo[1,2-a]pyridin-3-yl]pyrazin-2-amine]", "values": [{"measurement": "Ki", "setting": "CHK1 (kinase domain)", "result": 261, "unit": "nM"}, {"measurement": "EC50", "setting": "HeLa cells; [1]", "result": "≥ 10000", "unit": "nM"}]}
{"molecule": "CCc1cn2c(-c3cncc(N[C@@H]4CCCNC4)n3)cnc2s1", "note": "[Example 107, 6-(2-ethylimidazo[2,1-b][1,3]thiazol-5-yl)-N-[(3R)-piperidin-3-yl]pyrazin-2-amine]", "values": [{"measurement": "Ki", "setting": "CHK1 (kinase domain)", "result": 2.85, "unit": "nM"}, {"measurement": "EC50", "setting": "HeLa cells; [1]", "result": 31.6, "unit": "nM"}]}
{"molecule": "Cc1ncc(-c2cnc3ccccn23)nc1N[C@@H]1CCNC1", "note": "[Example 223, 6-(imidazo[1,2-a]pyridin-3-yl)-3-methyl-N-[(3R)-pyrrolidin-3-yl]pyrazin-2-amine]", "values": [{"measurement": "Ki", "setting": "CHK1 (kinase domain)", "result": 68.1, "unit": "nM"}, {"measurement": "EC50", "setting": "HeLa cells; [1]", "result": 329, "unit": "nM"}]}
{"molecule": "C[C@@H]1CNC[C@@H]1Nc1cncc(-c2cnc3cc(-c4cnn(C)c4)ccn23)n1", "note": "[Example 209, 6-[7-(1-methyl-1H-pyrazol-4-yl)imidazo[1,2-a]pyridin-3-yl]-N-[(3R,4R)-4-methylpyrrolidin-3-yl]pyrazin-2-amine]", "values": [{"measurement": "Ki", "setting": "CHK1 (kinase domain)", "result": 1.3, "unit": "nM"}, {"measurement": "EC50", "setting": "HeLa cells; [1]", "result": 123, "unit": "nM"}]}
{"molecule": "c1ccc2c(c1)ncn2-c1cncc(N[C@@H]2CCCNC2)n1", "note": "[Example 1, 6-(1H-benzimidazol-1-yl)-N-[(3R)-piperidin-3-yl]pyrazin-2-amine]", "values": [{"measurement": "Ki", "setting": "CHK1 (kinase domain)", "result": 13.2, "unit": "nM"}, {"measurement": "EC50", "setting": "HeLa cells; Homo sapiens, HeLa", "result": 70.3, "unit": "nM"}]}
{"molecule": "Cc1cn2c(-c3cncc(N[C@@H]4C[C@@H]5CN[C@H]4C5)n3)cnc2s1", "note": "[Example 125, (1S,4R,6R)-N-[6-(2-methylimidazo[2,1-b][1,3]thiazol-5-yl)pyrazin-2-yl]-2-azabicyclo[2.2.1]heptan-6-amine]", "values": [{"measurement": "EC50", "setting": "HeLa cells; [2]", "result": 35, "unit": "nM"}]}
